Laboratory results published in ChEMBL document CHEMBL5096221, “Discovery of a Highly Potent and Orally Bioavailable STAT3 Dual Phosphorylation Inhibitor for Pancreatic Cancer Treatment” (J Med Chem, 2022).

What was measured:
[1] = biological target: Cytochrome P450 2C19 (Homo sapiens, UniProt P33261); experiment: Inhibition of CYP2C19 in human liver microsomes; assay type: ADME, Microsome
[2] = Microsomal stability in rat liver microsomes assessed as compound remaining incubated for 60 mins in presence of NADPH by LC-MS/MS analysis; assay type: ADME, Microsome; details: read-out: Stability
[3] = Microsomal stability in dog liver microsomes assessed as half life incubated upto 40 mins in presence of NADPH by LC-MS/MS analysis; assay type: ADME, Canis lupus familiaris, Microsome
[4] = Cmax in BALB/c mouse at 1 mg/kg,iv measured upto 24 hrs by LC-MS/MS analysis; assay type: ADME, organism-based; design: dose 1 mg/kg, time < 24 hrs, route iv; details: in vivo
[5] = AUC (0-infinity) in BALB/c mouse at 10 mg/kg,po measured upto 24 hrs by LC-MS/MS analysis; assay type: ADME, organism-based; design: time < 24 hrs, dose 10 mg/kg, route po; details: in vivo
[6] = biological target: Cytochrome P450 3A4 (Homo sapiens, UniProt P08684); experiment: Inhibition of CYP3A4 in human liver microsomes using testosterone as substrate in presence of NADPH by HPLC analysis; assay type: ADME, Microsome
[7] = Microsomal stability in rat liver microsomes assessed as intrinsic clearance incubated upto 40 mins in presence of NADPH by LC-MS/MS analysis; assay type: ADME, Microsome; details: read-out: CLH
[8] = biological target: T1, Cytochrome P450 1A2 (Homo sapiens, UniProt P05177); experiment: Inhibition of CYP1A2 in human liver microsomes using phenacetin as substrate incubated for 30 mins in presence of NADPH by HPLC analysis; assay type: ADME, Microsome
T1 sequence (P05177 whole entry): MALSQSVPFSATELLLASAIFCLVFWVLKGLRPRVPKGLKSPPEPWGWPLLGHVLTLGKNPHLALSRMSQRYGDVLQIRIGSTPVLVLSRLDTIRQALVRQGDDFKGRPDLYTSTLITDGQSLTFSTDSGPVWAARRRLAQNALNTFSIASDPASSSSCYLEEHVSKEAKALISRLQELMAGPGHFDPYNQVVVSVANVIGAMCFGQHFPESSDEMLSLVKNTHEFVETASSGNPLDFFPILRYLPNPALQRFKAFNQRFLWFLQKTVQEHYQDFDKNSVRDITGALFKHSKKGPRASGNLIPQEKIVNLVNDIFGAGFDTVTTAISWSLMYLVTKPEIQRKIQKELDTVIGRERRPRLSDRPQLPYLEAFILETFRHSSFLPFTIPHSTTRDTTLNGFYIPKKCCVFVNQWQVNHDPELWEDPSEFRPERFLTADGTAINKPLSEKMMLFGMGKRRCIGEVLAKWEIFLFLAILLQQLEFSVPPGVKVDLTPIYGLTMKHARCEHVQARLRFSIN

[9] = biological target: Signal transducer and activator of transcription 3 (Homo sapiens, UniProt P40763); experiment: Inhibition of STAT3 in human HEK293T cells assessed as inhibition of IL-6 stimulated STAT3 phosphorylation by dual-luciferase reporter assay; assay type: cell-based
[10] = Microsomal stability in human liver microsomes assessed as half life incubated upto 40 mins in presence of NADPH by LC-MS/MS analysis; assay type: ADME, Microsome
[11] = Clearance at steady state in BALB/c mouse at 1 mg/kg,iv measured upto 24 hrs by LC-MS/MS analysis; assay type: ADME, organism-based; details: in vivo, iv, 1 mg/kg, 24 h
[12] = tested on: BXPC-3; experiment: Anti-proliferative activity against human BXPC-3 cells assessed as cell growth inhibition incubated for 72 hrs by MTS assay; assay type: functional, cell-based; details: BXPC-3, 72 h
[13] = Volume of distribution at steady state in BALB/c mouse at 1 mg/kg,iv measured upto 24 hrs by LC-MS/MS analysis; assay type: ADME, organism-based; details: in vivo, iv, 1 mg/kg, 24 h
[14] = Cmax in BALB/c mouse at 10 mg/kg,po measured upto 24 hrs by LC-MS/MS analysis; assay type: ADME, organism-based; design: time < 24 hrs, dose 10 mg/kg, route po; details: in vivo
[15] = Microsomal stability in dog liver microsomes assessed as compound remaining incubated for 60 mins in presence of NADPH by LC-MS/MS analysis; assay type: ADME, Canis lupus familiaris, Microsome; details: read-out: Stability
[16] = biological target: Cytochrome P450 2D6 (Homo sapiens, UniProt P10635); experiment: Inhibition of CYP2D6 in human liver microsomes using dextromethorphan as substrate incubated for 60 mins in presence of NADPH by HPLC analysis; assay type: ADME, Microsome
[17] = Oral bioavailability in BALB/c mouse at 10 mg/kg,po measured upto 24 hrs by LC-MS/MS analysis; assay type: ADME, organism-based; details: in vivo
[18] = Microsomal stability in rat liver microsomes assessed as half life incubated upto 40 mins in presence of NADPH by LC-MS/MS analysis; assay type: ADME, Microsome
[19] = tested on: Capan-2; experiment: Anti-proliferative activity against human Capan-2 cells assessed as cell growth inhibition incubated for 72 hrs by MTS assay; assay type: functional, cell-based; details: Capan-2, 72 h
[20] = Microsomal stability in human liver microsomes assessed as intrinsic clearance incubated upto 40 mins in presence of NADPH by LC-MS/MS analysis; assay type: ADME, Microsome; details: read-out: CLH
[21] = AUC (0-24hrs) in BALB/c mouse at 1 mg/kg,iv measured upto 24 hrs by LC-MS/MS analysis; assay type: ADME, organism-based; design: time < 24 hrs, dose 1 mg/kg, route iv; details: in vivo
[22] = Half life in BALB/c mouse at 10 mg/kg,po measured upto 24 hrs by LC-MS/MS analysis; assay type: ADME, organism-based; details: in vivo
[23] = AUC (0-infinity) in BALB/c mouse at 1 mg/kg,iv measured upto 24 hrs by LC-MS/MS analysis; assay type: ADME, organism-based; design: dose 1 mg/kg, time < 24 hrs, route iv; details: in vivo
[24] = Microsomal stability in human liver microsomes assessed as compound remaining incubated for 60 mins in presence of NADPH by LC-MS/MS analysis; assay type: ADME, Microsome; details: read-out: Stability
[25] = Microsomal stability in dog liver microsomes assessed as intrinsic clearance incubated upto 40 mins in presence of NADPH by LC-MS/MS analysis; assay type: ADME, Canis lupus familiaris, Microsome; details: read-out: CLH
[26] = MRT (0 to last) in BALB/c mouse at 1 mg/kg,iv measured upto 24 hrs by LC-MS/MS analysis; assay type: ADME, organism-based; details: in vivo, iv, 1 mg/kg, 24 h
[27] = MRT (0 to last) in BALB/c mouse at 10 mg/kg,po measured upto 24 hrs by LC-MS/MS analysis; assay type: ADME, organism-based; details: in vivo
[28] = biological target: Cytochrome P450 2C9 (Homo sapiens, UniProt P11712); experiment: Inhibition of CYP2C9 in human liver microsomes using tolbutamide as substrate incubated for 60 mins in presence of NADPH by HPLC analysis; assay type: ADME, Microsome
[29] = AUC (0-24hrs) in BALB/c mouse at 10 mg/kg,po measured upto 24 hrs by LC-MS/MS analysis; assay type: ADME, organism-based; design: dose 10 mg/kg, time < 24 hrs, route po; details: in vivo
[30] = Half life in BALB/c mouse at 1 mg/kg,iv measured upto 24 hrs by LC-MS/MS analysis; assay type: ADME, organism-based; details: in vivo
[31] = Inhibition of ATP production in human BXPC-3 cells incubated for 20 to 24 hrs by ATP assay kit method; assay type: functional, cell-based
[32] = Toxicity in BALB/c mouse xenografted with human BXPC-3 cells assessed as effect on liver at 30 mg/kg,po administrated once daily for 8 weeks by H and E staining based microscopic analysis; assay type: organism-based; details: in vivo, 1344 h
[33] = Toxicity in BALB/c mouse xenografted with human BXPC-3 cells assessed as effect on kidney at 30 mg/kg,po administrated once daily for 8 weeks by H and E staining based microscopic analysis; assay type: organism-based; details: in vivo, 1344 h
[34] = Toxicity in BALB/c mouse xenografted with human BXPC-3 cells assessed as effect on spleen at 30 mg/kg,po administrated once daily for 8 weeks by H and E staining based microscopic analysis; assay type: organism-based; details: in vivo, 1344 h
[35] = Toxicity in BALB/c mouse xenografted with human BXPC-3 cells assessed as effect on heart at 30 mg/kg,po administrated once daily for 8 weeks by H and E staining based microscopic analysis; assay type: organism-based; details: in vivo, 1344 h
[36] = Toxicity in BALB/c mouse xenografted with human BXPC-3 cells assessed as body weight change at 30 mg/kg,po administrated once daily for 8 weeks; assay type: organism-based; details: in vivo, 1344 h
[37] = tested on: BXPC-3; experiment: Antitumor activity against human BXPC-3 cells xenografted BALB/c mouse model assessed as tumor growth inhibition at 30 mg/kg,po administrated once daily for 8 weeks; assay type: functional; details: BXPC-3, 1344 h, read-out: TGI
[38] = Toxicity in BALB/c mouse xenografted with human BXPC-3 cells assessed as effect on lung at 30 mg/kg,po administrated once daily for 8 weeks by H and E staining based microscopic analysis; assay type: organism-based; details: in vivo, 1344 h

Chain of Cytochrome P450 2C19 (P33261 whole entry): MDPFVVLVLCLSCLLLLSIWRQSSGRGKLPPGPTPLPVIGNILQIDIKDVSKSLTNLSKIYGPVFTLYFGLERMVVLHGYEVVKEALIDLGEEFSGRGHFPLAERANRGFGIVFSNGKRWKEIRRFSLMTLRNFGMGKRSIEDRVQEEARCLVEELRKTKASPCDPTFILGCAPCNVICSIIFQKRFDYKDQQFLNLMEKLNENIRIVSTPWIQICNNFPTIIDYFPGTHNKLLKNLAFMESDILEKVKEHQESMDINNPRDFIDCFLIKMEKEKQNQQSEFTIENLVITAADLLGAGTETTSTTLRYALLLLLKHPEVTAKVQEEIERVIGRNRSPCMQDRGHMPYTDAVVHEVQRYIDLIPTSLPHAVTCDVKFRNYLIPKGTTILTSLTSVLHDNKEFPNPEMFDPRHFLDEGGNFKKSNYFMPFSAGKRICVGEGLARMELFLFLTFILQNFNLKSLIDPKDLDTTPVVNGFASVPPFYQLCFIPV
Chain of Cytochrome P450 2C9 (P11712 whole entry): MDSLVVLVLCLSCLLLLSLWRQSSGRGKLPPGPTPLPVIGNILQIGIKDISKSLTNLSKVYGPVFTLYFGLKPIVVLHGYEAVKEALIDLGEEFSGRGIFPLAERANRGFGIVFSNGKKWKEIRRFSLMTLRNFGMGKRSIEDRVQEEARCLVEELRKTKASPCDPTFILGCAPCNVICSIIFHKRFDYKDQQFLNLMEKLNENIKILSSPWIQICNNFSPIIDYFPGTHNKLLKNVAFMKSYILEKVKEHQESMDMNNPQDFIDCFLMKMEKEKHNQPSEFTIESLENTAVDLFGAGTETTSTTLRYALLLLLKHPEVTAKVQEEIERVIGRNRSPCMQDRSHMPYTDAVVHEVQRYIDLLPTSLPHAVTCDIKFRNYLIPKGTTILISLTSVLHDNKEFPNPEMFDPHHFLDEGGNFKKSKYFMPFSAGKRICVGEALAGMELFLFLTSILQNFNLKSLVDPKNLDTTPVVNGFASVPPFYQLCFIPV
Chain of Cytochrome P450 2D6 (P10635 whole entry): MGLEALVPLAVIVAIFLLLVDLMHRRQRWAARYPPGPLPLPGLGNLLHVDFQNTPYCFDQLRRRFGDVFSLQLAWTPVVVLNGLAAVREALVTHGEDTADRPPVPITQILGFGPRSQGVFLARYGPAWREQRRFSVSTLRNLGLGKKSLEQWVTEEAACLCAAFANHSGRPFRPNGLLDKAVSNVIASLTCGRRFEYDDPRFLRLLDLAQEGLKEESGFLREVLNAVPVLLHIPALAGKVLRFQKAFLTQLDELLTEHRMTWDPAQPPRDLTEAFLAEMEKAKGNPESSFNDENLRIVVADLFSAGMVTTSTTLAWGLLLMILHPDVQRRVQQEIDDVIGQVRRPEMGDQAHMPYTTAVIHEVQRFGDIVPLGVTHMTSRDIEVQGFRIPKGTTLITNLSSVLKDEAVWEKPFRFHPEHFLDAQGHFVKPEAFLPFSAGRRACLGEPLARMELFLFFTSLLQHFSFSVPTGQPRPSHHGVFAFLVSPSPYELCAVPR
Chain of Cytochrome P450 3A4 (P08684 whole entry): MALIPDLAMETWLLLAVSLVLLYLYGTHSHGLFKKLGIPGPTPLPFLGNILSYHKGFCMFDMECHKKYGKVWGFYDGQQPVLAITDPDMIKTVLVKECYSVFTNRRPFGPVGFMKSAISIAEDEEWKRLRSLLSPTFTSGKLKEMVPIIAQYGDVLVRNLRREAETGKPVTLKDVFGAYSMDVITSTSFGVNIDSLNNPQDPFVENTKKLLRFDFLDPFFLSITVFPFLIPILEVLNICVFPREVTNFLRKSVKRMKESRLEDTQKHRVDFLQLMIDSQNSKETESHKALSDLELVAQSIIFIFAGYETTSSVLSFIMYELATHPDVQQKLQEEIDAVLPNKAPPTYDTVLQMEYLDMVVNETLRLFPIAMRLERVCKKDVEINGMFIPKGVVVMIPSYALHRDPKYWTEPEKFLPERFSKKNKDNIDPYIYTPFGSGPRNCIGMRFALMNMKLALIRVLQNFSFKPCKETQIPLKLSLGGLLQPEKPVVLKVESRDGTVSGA
Chain of Signal transducer and activator of transcription 3 (P40763 whole entry): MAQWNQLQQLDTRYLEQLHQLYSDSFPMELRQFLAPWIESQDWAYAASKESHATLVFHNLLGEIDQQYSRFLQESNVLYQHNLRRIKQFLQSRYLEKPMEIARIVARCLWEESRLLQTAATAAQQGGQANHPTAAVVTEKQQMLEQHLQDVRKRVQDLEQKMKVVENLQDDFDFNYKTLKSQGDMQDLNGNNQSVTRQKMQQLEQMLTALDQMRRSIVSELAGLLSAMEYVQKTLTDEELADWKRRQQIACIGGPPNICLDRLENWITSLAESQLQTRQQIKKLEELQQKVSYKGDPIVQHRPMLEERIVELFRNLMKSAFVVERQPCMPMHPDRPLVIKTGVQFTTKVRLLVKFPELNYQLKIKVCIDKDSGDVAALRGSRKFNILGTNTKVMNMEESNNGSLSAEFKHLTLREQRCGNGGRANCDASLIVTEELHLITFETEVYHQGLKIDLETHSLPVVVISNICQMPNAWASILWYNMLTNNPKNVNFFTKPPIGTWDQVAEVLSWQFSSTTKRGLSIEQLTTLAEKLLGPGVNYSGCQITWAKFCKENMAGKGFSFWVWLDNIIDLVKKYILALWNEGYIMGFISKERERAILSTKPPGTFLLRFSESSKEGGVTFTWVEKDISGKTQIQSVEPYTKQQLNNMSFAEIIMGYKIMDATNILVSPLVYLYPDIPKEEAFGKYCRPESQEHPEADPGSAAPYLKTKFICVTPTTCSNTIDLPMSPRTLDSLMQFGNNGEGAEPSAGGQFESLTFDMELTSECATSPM

SMILES: Cn1c(C(=O)N2CCN(Cc3ccc(OCC(F)(F)F)cc3)CC2)cc2ccc(Oc3cnc(-c4nc(-c5ccc(F)cc5)no4)cn3)cc21
- IC50 [1]: > 50 µM
- remaining at 1 h [2]: 55.4%
- half-life [3]: 1.07 h
- Cmax [4]: 2910 ng/mL
- AUC(0-inf) [5]: 12300 ng·h/mL
- IC50 [6]: > 50 µM
- microsomal CLint [7]: 18.6 µL/min/mg
- IC50 [8]: > 50 µM
- IC50 [9]: 0.0059 µM
- half-life [10]: 1.22 h
- CL [11]: 1.24 mL/min/kg
- IC50 [12]: 0.0014 µM
- Vdss [13]: 3.7352 L/kg
- Cmax [14]: 669 ng/mL
- remaining at 1 h [15]: 50.9%
- IC50 [16]: > 50 µM
- bioavailability [17]: 12.5%
- half-life [18]: 1.24 h
- IC50 [19]: 0.0064 µM
- microsomal CLint [20]: 18.9 µL/min/mg
- AUC(0-t) at 24 h [21]: 8680 ng·h/mL
- half-life [22]: 13.9 h
- AUC(0-inf) [23]: 13800 ng·h/mL
- remaining at 1 h [24]: 57.6%
- microsomal CLint [25]: 21.5 µL/min/mg
- MRTlast [26]: 15 h
- MRT last at 24 h [27]: 15.6 h
- IC50 [28]: > 50 µM
- AUC(0-t) at 24 h [29]: 10900 ng·h/mL
- half-life [30]: 17.7 h
- IC50 [31]: 0.0024 µM

SMILES: CC(=O)c1cc2c(o1)C(=O)c1ccccc1C2=O [NAPABUCASIN]
- Activity [32]: Non-Toxic
- Activity [33]: Non-Toxic
- IC50 [12]: 5.31 µM
- Activity [34]: Non-Toxic
- IC50 [19]: 1.59 µM
- Activity [35]: Non-Toxic
- Activity [36]: Non-Toxic
- inhibition in vivo at 30 mg/kg [37]: 26.1%
- Activity [38]: Non-Toxic
- IC50 [31]: 1.96 µM
